The text below walks through data of patent US11702404B2, “GLP-1R modulating compounds” (priority 2019, dated 2023).

Structures are written as SMILES. Read-outs that look alike come from different tables or passages of the source.

The target in one data set is GLP-1R (Homo sapiens, UniProt P43220). Description: GLP-1R activation: cAMP increase in CHO cells stably expressing GLP-1R. It is filed as cell-based. Conditions: read-out: EC50.
Data set [1] can be described thus: Microsomal stability, human liver microsomes (predicted hepatic clearance). Conditions: predicted from in vitro microsomal stability data.
Setting [2] is: cAMP increase, CHO cells stably expressing GLP-1R, 10 point dose response, 30 minutes incubation.

Chain of GLP-1R (P43220 24-463): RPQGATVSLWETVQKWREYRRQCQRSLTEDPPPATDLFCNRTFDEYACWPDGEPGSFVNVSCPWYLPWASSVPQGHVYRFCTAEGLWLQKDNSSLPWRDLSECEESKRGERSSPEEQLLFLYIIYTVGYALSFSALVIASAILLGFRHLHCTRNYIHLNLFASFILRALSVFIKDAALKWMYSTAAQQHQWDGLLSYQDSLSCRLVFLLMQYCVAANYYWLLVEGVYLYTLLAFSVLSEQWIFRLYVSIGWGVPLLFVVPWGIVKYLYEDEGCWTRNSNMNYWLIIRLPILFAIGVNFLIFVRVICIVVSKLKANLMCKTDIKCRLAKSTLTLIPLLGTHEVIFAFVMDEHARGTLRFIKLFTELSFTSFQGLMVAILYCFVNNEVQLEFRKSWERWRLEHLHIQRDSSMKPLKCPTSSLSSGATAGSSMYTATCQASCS

As for `O=C(O)c1ccc2nc(Cc3cc(F)c(-c4ccnc(OCc5ccc(Cl)cc5F)n4)cc3F)n(CC3(CF)CC3)c2c1` [Example 433, 2-(4-(2-((4-chloro-2-fluorobenzyl)oxy)pyrimidin-4-yl)-2,5-difluorobenzyl)-1-((1-(fluoromethyl)cyclopropyl)methyl)-1H-benzo[d]imidazole-6-carboxylic acid], on GLP-1R (setting [2]), the EC50 (usually the concentration at which the effect is half-maximal) was found to be 0.64 nM. For the same compound, the “Predicted Hepatic Clearance (Pred. Cl.)” value in data set [1] was <1.83 mL/min/kg.

For `COCCn1c(Cn2cc(F)c(-c3cccc(OCc4ccc(C#N)cc4F)n3)cc2=O)nc2ccc(C(=O)O)cc21` [Example 434], the EC50 on GLP-1R (setting [2]) worked out at 2.86 nM. Besides, the “Predicted Hepatic Clearance (Pred. Cl.)” value in data set [1] was 3.17 mL/min/kg.

For `COCCn1c(Cc2ccc(-c3cccc(OCc4c(F)cc(Cl)cc4OC)n3)cc2F)nc2ccc(C(=O)O)cc21` [Example 435, 2-(4-(6-((4-chloro-2-fluoro-6-methoxybenzyl)oxy)pyridin-2-yl)-2-fluorobenzyl)-1-(2-methoxyethyl)-1H-benzo[d]imidazole-6-carboxylic acid], on GLP-1R (setting [2]), the EC50 was 8.7 nM. Besides, in data set [1], the “Predicted Hepatic Clearance (Pred. Cl.)” value is 6.17 mL/min/kg.

Turning to `COCCn1c(Cc2cc(F)c(-c3cccc(OCc4ccc(C#N)cc4OC)n3)cc2F)nc2ccc(C(=O)O)cc21` [Example 436, 2-(4-(6-((4-cyano-2-methoxybenzyl)oxy)pyridin-2-yl)-2,5-difluorobenzyl)-1-(2-methoxyethyl)-1H-benzo[d]imidazole-6-carboxylic acid], the EC50 at GLP-1R (setting [2]) amounted to 0.44 nM. Further, the “Predicted Hepatic Clearance (Pred. Cl.)” value in data set [1] is <1.83 mL/min/kg.

Turning to `COCCn1c(Cn2c(C)cc(-c3cccc(OCc4ccc(C#N)cc4F)n3)cc2=O)nc2ccc(C(=O)O)cc21` [Example 437, 2-((6-((4-cyano-2-fluorobenzyl)oxy)-6′-methyl-2′-oxo-[2,4′-bipyridin]-1′(2′H)-yl)methyl)-1-(2-methoxyethyl)-1H-benzo[d]imidazole-6-carboxylic acid], the EC50 at GLP-1R (setting [2]) amounted to 69.8 nM. Moreover, the “Predicted Hepatic Clearance (Pred. Cl.)” value in data set [1] was 2.67 mL/min/kg.

Turning to `COCCn1c(Cc2ccc(-c3cccc(OCc4ccc(C#N)cc4F)n3)cc2C#CC2CCOCC2)nc2ccc(C(=O)O)cc21` [Example 438, 2-(4-(6-((4-cyano-2-fluorobenzyl)oxy)pyridin-2-yl)-2-((tetrahydro-2H-pyran-4-yl)ethynyl)benzyl)-1-(2-methoxyethyl)-1H-benzo[d]imidazole-6-carboxylic], the EC50 at GLP-1R (setting [2]) is 64.7 nM. Moreover, the “Predicted Hepatic Clearance (Pred. Cl.)” value in data set [1] is 18.7 mL/min/kg.

Consider `N#Cc1ccc(COc2cccc(-c3cc(F)c(Cc4nc5ccc(C(=O)O)nc5n4CC4(CF)CC4)cc3F)n2)c(F)c1` [Example 440, 2-(4-(6-((4-cyano-2-fluorobenzyl)oxy)pyridin-2-yl)-2,5-difluorobenzyl)-3-((1-(fluoromethyl)cyclopropyl)methyl)-3H-imidazo[4,5-b]pyridine-5-carboxylic acid], for which, on GLP-1R (setting [2]), the EC50 stood at 2.12 nM. In addition, in data set [1], the “Predicted Hepatic Clearance (Pred. Cl.)” value is 5 mL/min/kg.

`N#CCC1(Cn2c(Cc3cc(F)c(-c4ccnc(OCc5ccc(C#N)cc5F)n4)cc3F)nc3ccc(C(=O)O)cc32)CC1` [Example 441, 2-(4-(2-((4-cyano-2-fluorobenzyl)oxy)pyrimidin-4-yl)-2,5-difluorobenzyl)-1-((1-(cyanomethyl)cyclopropyl)methyl)-1H-benzo[d]imidazole-6-carboxylic acid]: the EC50 at GLP-1R (setting [2]) came to 0.21 nM. Besides, the “Predicted Hepatic Clearance (Pred. Cl.)” value in data set [1] was 3 mL/min/kg.

Consider `N#CCC1(Cn2c(Cc3cc(F)c(-c4ccnc(OCc5ccc(Cl)cc5F)n4)cc3F)nc3ccc(C(=O)O)cc32)CC1` [Example 442, 2-(4-(2-((4-chloro-2-fluorobenzyl)oxy)pyrimidin-4-yl)-2,5-difluorobenzyl)-1-((1-(cyanomethyl)cyclopropyl)methyl)-1H-benzo[d]imidazole-6-carboxylic acid], for which the EC50 on GLP-1R (setting [2]) is 0.14 nM. In addition, the “Predicted Hepatic Clearance (Pred. Cl.)” value in data set [1] is 3.67 mL/min/kg.

As to `COc1cc(Cl)ccc1COc1cccc(-c2cc(F)c(Cc3nc4ccc(C(=O)O)cc4n3CC3(CC#N)CC3)cc2F)n1` [Example 443, 2-(4-(6-((4-chloro-2-methoxybenzyl)oxy)pyridin-2-yl)-2,5-difluorobenzyl)-1-((1-(cyanomethyl)cyclopropyl)methyl)-1H-benzo[d]imidazole-6-carboxylic acid], the EC50 at GLP-1R (setting [2]) is 0.15 nM. Besides, in data set [1], the “Predicted Hepatic Clearance (Pred. Cl.)” value is 11 mL/min/kg.

Regarding `N#Cc1ccc(COc2cccc(-c3cc(F)c(Cc4nc5ccc(C(=O)O)cc5n4C[C@@H]4CCO4)cc3F)n2)c(F)c1` [Example 444, (S)-2-(4-(6-((4-cyano-2-fluorobenzyl)oxy)pyridin-2-yl)-2,5-difluorobenzyl)-1-(oxetan-2-ylmethyl)-1H-benzo[d]imidazole-6-carboxylic acid], on GLP-1R (setting [2]), the EC50 was determined as 0.25 nM. In data set [1], the “Predicted Hepatic Clearance (Pred. Cl.)” value is 4.13 mL/min/kg.

Consider `COc1cc(Cl)ccc1COc1cccc(-c2cc(F)c(Cc3nc4ccc(C(=O)O)cc4n3CC3(CF)CC3)cc2F)n1` [Example 445, 2-(4-(6-((4-chloro-2-methoxybenzyl)oxy)pyridin-2-yl)-2,5-difluorobenzyl)-1-((1-(fluoromethyl)cyclopropyl)methyl)-1H-benzo[d]imidazole-6-carboxylic acid], for which, on GLP-1R (setting [2]), the EC50 was determined as 0.5 nM. Moreover, the “Predicted Hepatic Clearance (Pred. Cl.)” value in data set [1] is 9.67 mL/min/kg.

As to `N#Cc1ccc(COc2cccc(-c3cc(F)c(Cc4nc5c(F)cc(C(=O)O)cc5n4CC4(CF)CC4)cc3F)n2)c(F)c1` [Example 448, 2-(4-(6-((4-cyano-2-fluorobenzyl)oxy)pyridin-2-yl)-2,5-difluorobenzyl)-4-fluoro-1-((1-(fluoromethyl)cyclopropyl)methyl)-1H-benzo[d]imidazole-6-carboxylic], on GLP-1R (setting [2]), the EC50 turned out to be 1.23 nM. For the same compound, the “Predicted Hepatic Clearance (Pred. Cl.)” value in data set [1] was <1.83 mL/min/kg.

On to `N#Cc1ccc(COc2nc(-c3cc(F)c(Cc4nc5ccc(C(=O)O)cc5n4C[C@@H]4CCO4)cc3F)ncc2F)c(F)c1` [Example 449, (S)-2-(4-(4-((4-cyano-2-fluorobenzyl)oxy)-5-fluoropyrimidin-2-yl)-2,5-difluorobenzyl)-1-(oxetan-2-ylmethyl)-1H-benzo[d]imidazole-6-carboxylic acid], for which the EC50 on GLP-1R (setting [2]) worked out at 0.17 nM. In data set [1], the “Predicted Hepatic Clearance (Pred. Cl.)” value was 4.33 mL/min/kg.

As to `N#Cc1ccc(COc2nc(-c3cc(F)c(Cc4nc5ccc(C(=O)O)cc5n4C[C@@H]4CCO4)cc3F)ccc2F)c(F)c1` [Example 450, (S)-2-(4-(6-((4-cyano-2-fluorobenzyl)oxy)-5-fluoropyridin-2-yl)-2,5-difluorobenzyl)-1-(oxetan-2-ylmethyl)-1H-benzo[d]imidazole-6-carboxylic acid], the EC50 on GLP-1R (setting [2]) was 0.77 nM. Besides, the “Predicted Hepatic Clearance (Pred. Cl.)” value in data set [1] was <1.83 mL/min/kg.

As for `N#Cc1ccc(COc2ccnc(-c3cc(F)c(Cc4nc5ccc(C(=O)O)cc5n4C[C@@H]4CCO4)cc3F)n2)c(F)c1` [Example 451, (S)-2-(4-(4-((4-cyano-2-fluorobenzyl)oxy)pyrimidin-2-yl)-2,5-difluorobenzyl)-1-(oxetan-2-ylmethyl)-1H-benzo[d]imidazole-6-carboxylic acid], the concentration giving a half-maximal response (EC50) on GLP-1R (setting [2]) amounted to 0.16 nM. The “Predicted Hepatic Clearance (Pred. Cl.)” value in data set [1] is 4.83 mL/min/kg.

As for `CCn1cncc1Cn1c(Cc2ccc(-c3cccc(OCc4ccc(C#N)cc4F)n3)c(F)c2)nc2c(F)cc(C(=O)O)cc21` [Example 452, 2-(4-(6-((4-cyano-2-fluorobenzyl)oxy)pyridin-2-yl)-3-fluorobenzyl)-1-((1-ethyl-1H-imidazol-5-yl)methyl)-4-fluoro-1H-benzo[d]imidazole-6-carboxylic acid], the EC50 at GLP-1R (setting [2]) came to 0.16 nM. Also, the “Predicted Hepatic Clearance (Pred. Cl.)” value in data set [1] is 7.17 mL/min/kg.

Turning to `CC(=O)N1CCC[C@H]1Cn1c(Cc2ccc(-c3cccc(OCc4ccc(C#N)cc4F)n3)cc2F)nc2ccc(C(=O)O)cc21` [Example 453, (S)-1-((1-acetylpyrrolidin-2-yl)methyl)-2-(4-(6-((4-cyano-2-fluorobenzyl)oxy)pyridin-2-yl)-2-fluorobenzyl)-1H-benzo[d]imidazole-6-carboxylic acid], the EC50 on GLP-1R was found to be 40.3 nM. The “Predicted Hepatic Clearance (Pred. Cl.)” value in data set [1] is 3.83 mL/min/kg.

`N#Cc1ccc(COc2cccc(-c3ccc(Cc4nc5ccc(C(=O)O)cc5n4Cc4cscn4)c(F)c3)n2)c(F)c1` [Example 454, 2-(4-(6-((4-cyano-2-fluorobenzyl)oxy)pyridin-2-yl)-2-fluorobenzyl)-1-(thiazol-4-ylmethyl)-1H-benzo[d]imidazole-6-carboxylic acid]: the EC50 at GLP-1R (setting [2]) is 5.53 nM. Besides, the “Predicted Hepatic Clearance (Pred. Cl.)” value in data set [1] is 4.67 mL/min/kg.

On to `N#Cc1ccc(COc2cccc(-c3ccc(Cc4nc5c(F)cc(C(=O)O)cc5n4C[C@@H]4CCO4)c(F)c3)n2)c(F)c1` [Example 455, (S)-2-(4-(6-((4-cyano-2-fluorobenzyl)oxy)pyridin-2-yl)-2-fluorobenzyl)-4-fluoro-1-(oxetan-2-ylmethyl)-1H-benzo[d]imidazole-6-carboxylic acid], for which, on GLP-1R (setting [2]), the concentration giving a half-maximal response (EC50) was 1.87 nM. Also, the “Predicted Hepatic Clearance (Pred. Cl.)” value in data set [1] was <1.83 mL/min/kg.

As to `N#Cc1ccc(COc2cccc(-c3ccc(Cc4nc5ccc(C(=O)O)cc5n4CC4(n5ccnn5)CC4)cc3F)n2)c(F)c1` [Example 457, 1-((1-(1H-1,2,3-triazol-1-yl)cyclopropyl)methyl)-2-(4-(6-((4-cyano-2-fluorobenzyl)oxy)pyridin-2-yl)-3-fluorobenzyl)-1H-benzo[d]imidazole-6-carboxylic acid], the EC50 at GLP-1R (setting [2]) is 1.4 nM. The “Predicted Hepatic Clearance (Pred. Cl.)” value in data set [1] is 7.83 mL/min/kg.

For the compound `COCCn1c(Cc2ccc(-c3cccc(OCc4ccc(C(F)(F)F)nc4OC)n3)cc2F)nc2ccc(C(=O)O)cc21` [Example 458, 2-[[2-fluoro-4-[6-[[2-methoxy-6-(trifluoromethyl)-3-pyridyl]methoxy]-2-pyridyl]phenyl]methyl]-3-(2-methoxyethyl)benzimidazole-5-carboxylic acid], on GLP-1R (setting [2]), the EC50 is 2.78 nM. In data set [1], the “Predicted Hepatic Clearance (Pred. Cl.)” value was <1.83 mL/min/kg.
